Experimental data from patent publication US11738031B2, “Compositions and methods for preventing or treating muscle conditions” (The Board of Trustees of the Leland Stanford Junior …, priority 2017, dated 2023).

Experiments:
[1] = published, FDA approved dose range; cited from earlier work
[2] = system: endogenous MuSCs in tibialis anterior (TA) muscles; assay: BLI of endogenous MuSC expansion after intramuscular bupivacaine/dmPGE2 (Example 4); assay type: in vivo, mouse; details: 0.125%, 0.25% or 0.5% BPV in combination with 10 μg dmPGE2, two weeks after injection
Procedure: Double-transgenic Pax7^CreERT2;Rosa26-LSL-Luc mice were generated by crossing Pax7^CreERT2 mice and Rosa26-LSL-Luc mice obtained from Jackson Laboratory (Stock #005125). These genotypes were validated by appropriate PCR-based strategies. All mice from transgenic and wild-type strains were of young age (2-4 months). All experiments were conducted using age and gender-matched controls. As depicted in the experimental scheme shown in FIG. 23A, mice were treated with five consecutive daily intraperitoneal injections of tamoxifen to activate luciferase expression under the control of the Pax7 promoter. A week after the last tamoxifen injection, the tibialis anterior (TA) muscles were injected intramuscularly with 50 μL of a drug mixture containing 0.125%, 0.25%, or 0.5% bupivacaine (BPV) (Cayman Chemical Cat #16618) and 10 μg 16,16-dimethyl prostaglandin E2 (dmPGE2; Tocris, Catalog #4027) using a 30 gauge needle on a Hamilton syringe. The contralateral TA received 50 μL of a mixture containing 0.5% bupivacaine (BPV) and DMSO vehicle as baseline sham control. Bioluminescence was assayed at days 3, 7, 10 and 14 post-injury.
Bioluminescence imaging (BLI) was performed using a Xenogen-100 system, as previously described. Briefly, mice were anesthetized using isofluorane inhalation and administered 120 μL D-luciferin (0.1 mmol/kg, reconstituted in PBS; Caliper LifeSciences) by intraperitoneal injection. BLI was acquired with between 5-60 second exposure at F-stop=1.0 at 5 minutes after luciferin injection. Digital images were recorded and analyzed using Living Image software (Caliper LifeSciences). Images were analyzed with a consistent region-of-interest (ROI) placed over each hindlimb to calculate a bioluminescence signal. A bioluminescence signal was calculated in radiance (p s^−1 cm^−2 sr^−1) value of 10^4 to define a positive threshold signal over background. BLI imaging was performed bi-weekly for 2 weeks after coinjection of BPV with dmPGE2 or vehicle.
The data in FIGS. 23A-C and 24 are shown as the mean±s.e.m. with n=6 mice. […]

CCCCN1CCCCC1C(=O)Nc1c(C)cccc1C (centres unmarked) [bupivacaine]
NOAEL [1]: 0.5% | muscle regeneration (fold change in BLI) vs BPV dose [2]: dose-dependent increase in muscle regeneration
